Test results as given in patent US4959368A, “Therapeutic agent for neurological diseases” (Mitsui Petrochemical Industries Ltd., priority 1986, dated 1990).

Key:
[1] = system: human neuroblastoma cell line GOTO; assay: Activity on neuroblastoma cell line GOTO (cell number, number and length of neurites); type: cell-based
Method: The biological activities in vitro of the compounds of formula (I) on cells of the nervous system were tested. The cells tested were human neuroblastoma cell line GOTO [see Sekiguchi, M., Oota, T., Sakakibara, K., Inui, N. & Fujii, G., Japan. J. Exp. Med., 49, 67-83 (1979)], and neuroblastoma cell line NB-1 [see Miyake, S., Shimo, Y., Kitamura, T., Nojyo, Y., Nakamura, T., Imkashuku, S. and Abe, T., The Autonomic Nervous System, 10, 115-120 (1973)], and mouse neuroblastoma cell line neuro-2a (Dainippon Pharmaceutical Co., Ltd.) which have been established as the cells of the nervous system. The above neuve cells were grown in an incubator at 37° C. in the presence of 5% carbon dioxide gas exponentially, and then cultivated for a certain period of time together with the compounds of formula (I).
The effect of the compounds of this invention on neuroblastoma cells was examined by the following method.
A culture medium [composed of 45% of RPMI 1640 medium, 45% modified Eagle's medium (MEM) and 10% of fetal calf serum (FCS) and containing penicillin G sodium (100 units/ml) and streptomycin sulfate (100 microgram/ml)] containing neurobalstoma cell line GOTO in the logarithmic growth period was poured in an amount of 2 ml each into polystyrene dishes (35 mm; made by Corning Co.) so that the cell concentration was 2 to 6×10^4 cells per dish, and the cells were cultured for 1 to 2 days in a carbon dioxide gas incubator containing 5% of carbon dioxide gas in air at 37° C. Then, the culture fluid was removed, and 2 ml of a fresh serum-free culture fluid (consisting of 50% of RPMI medium and 50% of MEM medium and containing penicillin G sodium and streptomycin sulfate in the same amounts as above) was added. At the same time, a presterilized PBS solution (phosphate buffered saline) of each of the test compounds in various concentrations was added to each of the dishes. After culturing for 24 hours, the number of living cells was counted. Furthermore, the culture was photographed, and from the photos, the number and length of neurites per cell were measured. The numer of living cells was counted for 3 to 6 dishes by resistance to staining with erythrosine dye. The number and length of the neurites were measured with regard to 6 photos (more than 200 cells per photo).

[2] = system: mouse neuroblastoma cell line neuro-2a; assay: Activity on neuro-2a, cells with outgrown neurites; type: cell-based
Method: In order to examine the effects of the test compounds, the following method was also employed.
Mouse neuro 2a cells in the logarithmic growth period in the Dulbecco's modified Eagle's medium (DMEM) containing 10% FCS was seeded in a 48-well plate so that the number of cells was 1,000 cells/well, and cultured for one day in 0.25 ml of the culture fluid in each well. The culture medium was then replaced by a medium containing each of the test compounds and FCS, and the cells were further cultured for 24 hours. Then, a 4% aqueous glutaraldehyde solution in the same amount as the medium (0.25 ml) was added, and the culture fluid was left to stand at room temperature for 2 hours to fix the cells. After washing with water, a 0.05% aqueous solution of methylene blue was added to stain the cells. Under a microscope, the number of cells containing outgrown neurites (cells having at least one neutrite with a length at least two times as large as the long diameter of the cell) was counted visually, and the proportion of these cells in the entire cells was calculated. The well was observed over 5 or more visual fields (at least 2% of the entire surface area of the well) continuous to the left and right from a mark put at the center of the well, and more than 200 cells was counted. One drug compound was used in 6 different concentrations at most, and three runs were conducted for each concentration.

mice = assay: Acute toxicity, mouse; type: in vivo; details: 24 hours; for Number of dead animals/number of test animals: Table 7, 1000 mg/kg p.o.; for Presumed LD50: Table 7, p.o., 1440 min
Method: The acute toxicity of the compounds of the invention was examined by the following method.
Male ddy-strain 5-week old mice and male Wistar-strain 8 week old rats, five per group, were used as experimental animals. Each of the compounds was dissolved in saline and administered perorally, and the toxicity of the compound was assessed 24 hours after the administration.

[3] = Table 3 Run No. 10, 0.1 mM, control 1.7 ± 0.7
[4] = Table 3 Run No. 6, 0.1 mM, control 4.4 ± 0.9
[5] = Table 3 Run No. 11, 0.1 mM, control 2.5 ± 0.6

Structure (SMILES): CCOC(=O)CN1CCN(c2ncc(C(=O)OC)c(NC(C)C)n2)CC1 [Compound 100, Methyl 2-(4-ethoxycarbonylmethylpiperazino)-4-isopropylaminopyrimidine-5-carboxylate]
- Number of neurites/cell (mean ± S.D.) ([1]; Table 1, Run No. 7 by footnote, 10 μg/ml, control 1.77 ± 0.68): 2.00 ± 0.79 neurites/cell
- Length of neurites (mean ± S.D.) ([1]; Table 1, Run No. 7 by footnote, 10 μg/ml, control 42.20 ± 17.75, all *P <0.01): 56.06 ± 26.47 μm/cell

Structure (SMILES): CCNc1nc(N2CCNCC2)ncc1C(=O)OC [Compound 136]
- Number of neurites/cell (mean ± S.D.) ([1]; Table 1 Run No. 2, 1 μg/ml, control 2.06 ± 0.60): 2.14 ± 0.63 neurites/cell
- Number of cells (mean ± S.E.) ([1]; Table 1 Run No. 2, 1 μg/ml, control 12.30 ± 1.48): 12.85 ± 2.52 × 10^4 /dish
- Length of neurites (mean ± S.D.) ([1]; Table 1 Run No. 2, 1 μg/ml, control 55.00 ± 37.26): 60.24 ± 34.28 μm/cell
- Cells having neurites with a length at least twice the long diameter of cell/total number of cells ([2]; Table 3 Run No. 2, 0.1 mM, control 1.9 ± 0.9): 7.2 ± 1.7%
- Cells having neurites with a length at least twice the long diameter of cell/total number of cells ([2]; Table 3 Run No. 10, 0.01 mM, control 1.7 ± 0.7): 5.8 ± 1.6%
- Cells having neurites with a length at least twice the long diameter of cell/total number of cells ([2]; Table 3 Run No. 10, 0.03 mM, control 1.7 ± 0.7): 16.4 ± 0.9%
- Cells having neurites with a length at least twice the long diameter of cell/total number of cells [2, 3]: 12.6 ± 1.4%

Structure (SMILES): CN1C(=O)Cc2cnc(N3CCN(Cc4ccc5c(c4)OCO5)CC3)nc21 [Compound 438, 5,6-Dihydro-7-methyl-2[4-(3,4-methylenedioxyphenylmethyl)piperazino]-6-oxo(7H)pyrrolo[2,3-d]pyrimidine naphthalene-2-sulfonate]
- Number of dead animals/number of test animals (mice): 0/5

Structure (SMILES): CN1Cc2nc(N3CCNCC3)ncc2C1=O [Compound 606]
- Number of dead animals/number of test animals (mice): 0/5
- Presumed LD50 (mice): > 1000 mg/kg p.o.
- Cells having neurites with a length at least twice the long diameter of cell/total number of cells [2, 4]: 6.9 ± 1.8%
- Cells having neurites with a length at least twice the long diameter of cell/total number of cells ([2]; Table 3 Run No. 6, 3 mM, control 4.4 ± 0.9): 11.9 ± 2.1%

Structure (SMILES): CN1Cc2nc(N3CCNCC3)ncc2C1=O [Compound 608]
- Number of dead animals/number of test animals (mice): 0/5
- Presumed LD50 (mice): > 1000 mg/kg p.o.

Structure (SMILES): CC(C)N1Cc2nc(N3CCNCC3)ncc2C1=O [Compound 628]
- Length of neurites (mean ± S.D.) ([1]; Table 1, Run No. 6 by footnote, 1 μg/ml, control 42.48 ± 19.64, all *P <0.01): 55.72 ± 25.08 μm/cell
- Number of neurites/cell (mean ± S.D.) ([1]; Table 1, Run No. 6 by footnote, 10 μg/ml, control 1.79 ± 0.80): 2.06 ± 0.81 neurites/cell
- Length of neurites (mean ± S.D.) ([1]; Table 1, Run No. 6 by footnote, 10 μg/ml, control 42.48 ± 19.64, all *P <0.01): 53.68 ± 22.36 μm/cell
- Number of neurites/cell (mean ± S.D.) ([1]; Table 1, second control group (Run No. 6 by footnote), 1 μg/ml, control 1.79 ± 0.80): 1.90 ± 0.81 neurites/cell

Structure (SMILES): CC(=O)N1Cc2nc(N3CCNCC3)ncc2C1=O [Compound 650, 6-Acetyl-2-piperazino-5-oxo-5,6-dihydro(7H)pyrrolo[3,4-d]pyrimidine naphthalene-2-sulfonate]
- Number of dead animals/number of test animals (mice): 0/5

Structure (SMILES): CCC(=O)N1Cc2nc(N3CCNCC3)ncc2C1=O [Compound 678]
- Number of dead animals/number of test animals (mice): 0/5
- Cells having neurites with a length at least twice the long diameter of cell/total number of cells [2, 5]: 4.1 ± 2.2%
- Cells having neurites with a length at least twice the long diameter of cell/total number of cells ([2]; Table 3 Run No. 11, 1 mM, control 2.5 ± 0.6): 16.1 ± 1.6%
- Cells having neurites with a length at least twice the long diameter of cell/total number of cells ([2]; Table 3 Run No. 11, 3 mM, control 2.5 ± 0.6): 9.1 ± 2.2%

Structure (SMILES): Cn1ccc2nc(N3CCNCC3)ncc2c1=O [Compound 707]
- Cells having neurites with a length at least twice the long diameter of cell/total number of cells ([2]; Table 3 Run No. 7, 0.3 mM, control 2.5 ± 0.7): 7.3 ± 1.0%
- Cells having neurites with a length at least twice the long diameter of cell/total number of cells ([2]; Table 3 Run No. 7, 0.5 mM, control 2.5 ± 0.7): 10.5 ± 1.5%
- Cells having neurites with a length at least twice the long diameter of cell/total number of cells ([2]; Table 3 Run No. 7, 1 mM, control 2.5 ± 0.7): 21.4 ± 1.7%
- Cells having neurites with a length at least twice the long diameter of cell/total number of cells ([2]; Table 3 second Run No. 5, 0.01 mM, control 4.5 ± 0.3): 6.1 ± 0.5%
- Cells having neurites with a length at least twice the long diameter of cell/total number of cells ([2]; Table 3 second Run No. 5, 1 mM, control 4.5 ± 0.3): 36.1 ± 3.7%

Structure (SMILES): Cl.c1nc(N2CCNCC2)nc2c1CCO2 [Compound 902, 5,6-Dihydro-2-piperazinofuro[2,3-d]pyrimidine hydrochloride]
- Cells having neurites with a length at least twice the long diameter of cell/total number of cells ([2]; Table 3 Run No. 6, 0.01 mM, control 4.4 ± 0.9): 6.9 ± 0.8%
- Cells having neurites with a length at least twice the long diameter of cell/total number of cells ([2]; Table 3 Run No. 6, 0.03 mM, control 4.4 ± 0.9): 6.7 ± 0.9%
- Cells having neurites with a length at least twice the long diameter of cell/total number of cells ([2]; Table 3 Run No. 6, 1 mM, control 4.4 ± 0.9): 6.7 ± 1.0%

Structure (SMILES): Cc1cc2c(C)nc(N3CCNCC3)nc2o1.Cl [Compound 906, 4,6-Dimethyl-2-piperazinofuro[2,3-d]pyrimidine hydrochloride]
- Cells having neurites with a length at least twice the long diameter of cell/total number of cells [2, 4]: 7.4 ± 1.0%
- Cells having neurites with a length at least twice the long diameter of cell/total number of cells ([2]; Table 3 Run No. 6, 0.3 mM, control 4.4 ± 0.9): 7.0 ± 0.6%

Structure (SMILES): CN1CCc2cnc(N3CCNCC3)nc21 [Compound 914, 5,6-Dihydro-7-methyl-2-piperazino(7H)pyrrolo[2,3-d]pyrimidine naphthalene-2-sulfonate]
- Cells having neurites with a length at least twice the long diameter of cell/total number of cells [2, 3]: 4.9 ± 0.9%
- Cells having neurites with a length at least twice the long diameter of cell/total number of cells ([2]; Table 3 Run No. 10, 0.3 mM, control 1.7 ± 0.7): 4.6 ± 0.8%

Structure (SMILES): CC1Cc2nc(N3CCNCC3)ncc2C(=O)O1.Cl (centres unmarked) [Compound 918, 7,8-Dihydro-7-methyl-5-oxo-2-piperazino(5H)pyrano[4,3-d]pyrimidine hydrochloride]
- Cells having neurites with a length at least twice the long diameter of cell/total number of cells ([2]; Table 3 Run No. 4, 0.1 mM, control 3.1 ± 0.2): 7.4 ± 2.5%
- Cells having neurites with a length at least twice the long diameter of cell/total number of cells ([2]; Table 3 Run No. 4, 1 mM, control 3.1 ± 0.2): 12.5 ± 0.9%

Structure (SMILES): COc1cc2cnc(N3CCNCC3)nc2cc1OC [Compound 940]
- Number of neurites/cell (mean ± S.D.) ([1]; Table 1 Run No. 1, 10 μg/ml, control 2.09 ± 0.61): 2.12 ± 0.60 neurites/cell
- Number of cells (mean ± S.E.) ([1]; Table 1 Run No. 1, 10 μg/ml, control 14.34 ± 0.72): 21.55 ± 2.36 × 10^4 /dish
- Length of neurites (mean ± S.D.) ([1]; Table 1 Run No. 1, 10 μg/ml, control 70.10 ± 43.03): 77.92 ± 49.91 μm/cell
- Cells having neurites with a length at least twice the long diameter of cell/total number of cells [2, 5]: 11.5 ± 0.2%
- Cells having neurites with a length at least twice the long diameter of cell/total number of cells ([2]; Table 3 Run No. 11, 0.3 mM, control 2.5 ± 0.6): 17.0 ± 1.2%
